In patent US20250034216A1, “STEREOSELECTIVE COVALENT LIGANDS FOR ONCOGENIC AND IMMUNOLOGICAL PROTEINS” (The Scripps Research Institute, priority 2021, published 2025):

Legend:
Assay in all cases: IA-DTB cysteine engagement
Type in all cases: binding
ABHD16A_C205 = molecular target: T1, ABHD16A_C205 (Homo sapiens, UniProt O95870); settings: 22Rv1 cells, relative to DMSO; for % engagement ABHD16A_C205: 20 μM probe, 1 h; for % engagement ABHD16A_205: 5 μM probe, 1 h (FIG. 5B)
T1 construct: endogenous in cells; host or cells: 22Rv1
T1 sequence (O95870 1-558): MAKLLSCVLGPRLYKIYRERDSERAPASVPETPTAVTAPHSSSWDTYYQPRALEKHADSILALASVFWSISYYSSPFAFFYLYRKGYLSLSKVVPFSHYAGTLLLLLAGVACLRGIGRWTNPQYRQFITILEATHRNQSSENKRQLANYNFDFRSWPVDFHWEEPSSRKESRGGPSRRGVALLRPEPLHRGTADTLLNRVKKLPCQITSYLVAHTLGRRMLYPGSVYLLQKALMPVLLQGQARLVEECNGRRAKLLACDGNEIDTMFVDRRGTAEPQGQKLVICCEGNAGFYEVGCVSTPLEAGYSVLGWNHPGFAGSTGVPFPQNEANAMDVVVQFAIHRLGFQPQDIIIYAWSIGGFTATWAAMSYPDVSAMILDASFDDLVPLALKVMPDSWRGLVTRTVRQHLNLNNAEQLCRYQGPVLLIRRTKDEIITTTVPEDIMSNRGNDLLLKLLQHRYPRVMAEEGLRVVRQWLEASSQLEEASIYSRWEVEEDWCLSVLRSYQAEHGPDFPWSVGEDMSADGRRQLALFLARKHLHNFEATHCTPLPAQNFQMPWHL
How it was run: (§1)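 In-situ probe treatment of cells; lysate 2 mg/mL, IA-DTB 1 h RT; MeOH/CHCl3 precipitation, DTT/iodoacetamide, trypsin; streptavidin enrichment; TMT labeling, high-pH fractionation. Ratio = TMT reporter intensity / mean DMSO channels, median-normalized.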

BLOC1S2_C41 = molecular target: T2, BLOC1S2_C41 (Homo sapiens, UniProt Q6QNY1); settings: 22Rv1 cells, 20 μM probe, 1 h, relative to DMSO
T2 construct: endogenous in cells; host or cells: 22Rv1
T2 sequence (Q6QNY1 1-142): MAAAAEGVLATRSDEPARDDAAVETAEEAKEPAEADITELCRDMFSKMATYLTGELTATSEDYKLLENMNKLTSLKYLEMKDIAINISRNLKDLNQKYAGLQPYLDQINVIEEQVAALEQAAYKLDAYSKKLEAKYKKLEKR
How it was run: as §1

CKAP4_C100 = molecular target: T3, CKAP4_C100 (Homo sapiens, UniProt Q07065); settings: 22Rv1 cells, 20 μM probe, 1 h, relative to DMSO
T3 construct: endogenous in cells; host or cells: 22Rv1
T3 sequence (Q07065 1-602): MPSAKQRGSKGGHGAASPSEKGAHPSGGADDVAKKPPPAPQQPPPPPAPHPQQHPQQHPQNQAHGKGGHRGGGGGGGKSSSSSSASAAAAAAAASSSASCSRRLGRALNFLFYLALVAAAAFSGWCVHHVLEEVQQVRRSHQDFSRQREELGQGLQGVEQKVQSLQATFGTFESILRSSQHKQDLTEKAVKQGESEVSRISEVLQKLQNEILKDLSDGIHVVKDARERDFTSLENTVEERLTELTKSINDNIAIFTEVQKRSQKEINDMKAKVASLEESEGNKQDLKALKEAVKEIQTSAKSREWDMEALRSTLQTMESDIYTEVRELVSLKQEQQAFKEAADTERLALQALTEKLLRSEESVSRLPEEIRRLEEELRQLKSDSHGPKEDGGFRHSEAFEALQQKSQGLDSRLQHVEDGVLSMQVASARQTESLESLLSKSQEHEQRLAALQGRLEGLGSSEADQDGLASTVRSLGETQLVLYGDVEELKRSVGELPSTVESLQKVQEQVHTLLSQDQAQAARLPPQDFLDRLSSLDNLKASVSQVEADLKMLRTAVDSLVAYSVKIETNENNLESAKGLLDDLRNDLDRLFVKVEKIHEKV
How it was run: as §1

Structure (SMILES) | % engagement ABHD16A_C205 (ABHD16A_C205) [%] | % engagement BLOC1S2_C41 (BLOC1S2_C41) [%] | % engagement CKAP4_C100 (CKAP4_C100) [%] | % engagement ABHD16A_205 (ABHD16A_C205) [%]
C=CC(=O)N1C[C@H](c2ccc(Br)cc2)[C@@H]1C(=O)Nc1cccc2cccnc12 [MY-1B, (2R,3S)-1-acryloyl-3-(4-bromophenyl)-N-(quinolin-8-yl)azetidine-2-carboxamide] | 80.25 | 70 | 90.25 | 83.67
C=CC(=O)N1C[C@H](c2ccc(Br)cc2)[C@H]1C(=O)Nc1cccc2cccnc12 [MY-3A, (2S,3S)-1-acryloyl-3-(4-bromophenyl)-N-(quinolin-8-yl)azetidine-2-carboxamide] | 73.25 | 3.5 | 78.75 | –
C=CC(=O)N1C[C@@H](c2ccc(Br)cc2)[C@H]1C(=O)Nc1cccc2cccnc12 [MY-1A, (2S,3R)-1-acryloyl-3-(4-bromophenyl)-N-(quinolin-8-yl)azetidine-2-carboxamide] | 67.75 | 6 | 84 | –

Further lines, results first:

% engagement ABHD16A_C205 (ABHD16A_C205) [%] | % engagement BLOC1S2_C41 (BLOC1S2_C41) [%] | % engagement CKAP4_C100 (CKAP4_C100) [%] | % engagement ABHD16A_205 (ABHD16A_C205) [%] | Structure (SMILES)
77.25 | 66.5 | 93.75 | – | C=CC(=O)N1C[C@H](c2ccc(Br)cc2)[C@H]1C(=O)Nc1cccc2cccnc12 [MY-3B, (2S,3S)-1-acryloyl-3-(4-bromophenyl)-N-(quinolin-8-yl)azetidine-2-carboxamide]
– | – | – | 62.50 | CC#CC(=O)N1C[C@H](c2ccc(Br)cc2)[C@@H]1C(=O)Nc1cccc2cccnc12 [MY-45B, (2R,3S)-3-(4-bromophenyl)-1-(but-2-ynoyl)-N-(quinolin-8-yl)azetidine-2-carboxamide]
